Key:
[1] = biological target: T1, recombinant human CYP11B2 (Homo sapiens, UniProt P19099); test: CYP11B2 enzyme assay with enzyme enriched microsomes, aldosterone measured by LC-MS; type: biochemical; conditions: microsomes from V79-4 cells; 11-deoxycorticosterone at Km; read-out: hCYP11B2 IC50
T1 construct: made in house; host or cells: V79-4 cells (Chinese hamster lung fibroblasts); enzyme-enriched microsomal fraction of the lysate
T1 sequence (P19099 25-503): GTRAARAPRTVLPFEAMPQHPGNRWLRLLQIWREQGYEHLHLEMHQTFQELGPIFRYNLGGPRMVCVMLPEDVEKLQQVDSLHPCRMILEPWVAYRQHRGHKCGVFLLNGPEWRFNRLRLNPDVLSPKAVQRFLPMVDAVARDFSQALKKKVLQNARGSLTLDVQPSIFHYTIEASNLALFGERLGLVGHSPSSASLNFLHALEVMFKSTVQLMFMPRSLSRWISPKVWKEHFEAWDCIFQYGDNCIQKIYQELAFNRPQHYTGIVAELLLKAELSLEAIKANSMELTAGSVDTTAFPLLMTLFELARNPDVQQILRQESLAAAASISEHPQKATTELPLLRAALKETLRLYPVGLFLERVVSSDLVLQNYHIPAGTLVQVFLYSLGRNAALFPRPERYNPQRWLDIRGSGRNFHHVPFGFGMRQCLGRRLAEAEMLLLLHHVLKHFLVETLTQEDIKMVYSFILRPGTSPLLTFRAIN
Description: (§1) V79-4 cells expressing recombinant andrenodoxin and andrenodoxin reductase with either recombinant human CYP11B2 or CYP11B1 were prepared according to methods previously described (LaSala et al 2009 Anal Bioch 394:56-61). An enzyme enriched microsomal fraction was prepared from cellular lysates and subsequently used as the enzyme source for determining inhibitor IC50s. The substrate Km values were experimentally determined for 11-deoxycorticosterone (CYP11B2 substrate) and 11-deoxycortisol (CYP11B1 substrate). Enzyme assays for inhibitor screening employed CYP11B2 and CYP11B1 enzyme enriched microsomes and were run at the Km of the respective substrates. Products of the enzyme reactions, aldosterone for CYP11B2 or cortisol for CYP11B1, were measured by LC-MS. Assays were run under conditions of less than 20% substrate turnover. Inhibitor IC50s were generated by determining the product formation in the absence or presence of inhibitor at various concentrations. In the absence of the test compound, the product formed (Pt) in each data set was defined as 100% activity. In the absence of enzyme, the product formed (Pb) in each data set was defined as 0% activity. The percent activity in the presence of each inhibitor was calculated according to the following equation: % activity=(P−Pb)/(Pt−Pb), where P=the product formed in the presence of the inhibitor. The IC50 value was defined as the inhibitor concentration causing a 50% decrease in activity relative to the no inhibitor control reaction.

[2] = biological target: T2, recombinant human CYP11B1 (Homo sapiens, UniProt P15538); test: CYP11B1 enzyme assay with enzyme enriched microsomes, cortisol measured by LC-MS; type: biochemical; conditions: microsomes from V79-4 cells; 11-deoxycortisol at Km; read-out: hCYP11B1 IC50
T2 construct: made in house; host or cells: V79-4 cells (Chinese hamster lung fibroblasts); enzyme-enriched microsomal fraction of the lysate
T2 sequence (P15538 25-503): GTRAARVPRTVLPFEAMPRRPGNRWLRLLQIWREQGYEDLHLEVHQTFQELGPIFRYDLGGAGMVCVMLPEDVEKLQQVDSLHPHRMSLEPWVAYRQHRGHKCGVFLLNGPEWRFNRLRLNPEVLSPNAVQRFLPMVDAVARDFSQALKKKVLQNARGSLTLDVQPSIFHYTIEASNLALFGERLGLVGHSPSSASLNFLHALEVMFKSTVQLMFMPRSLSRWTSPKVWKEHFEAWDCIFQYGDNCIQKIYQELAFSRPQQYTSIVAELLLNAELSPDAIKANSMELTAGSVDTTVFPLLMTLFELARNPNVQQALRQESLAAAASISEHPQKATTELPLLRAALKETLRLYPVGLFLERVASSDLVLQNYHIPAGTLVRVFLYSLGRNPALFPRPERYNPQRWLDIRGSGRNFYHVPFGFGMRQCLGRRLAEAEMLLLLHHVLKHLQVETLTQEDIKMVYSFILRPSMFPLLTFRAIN
Description: as §1

| IC50 [1] | IC50 [2] | Structure (SMILES) |
| --- | --- | --- |
| 1 to 100 nM | 1000 to 10000 nM | CCn1c(-n2cnc3cc(F)c(F)cc32)nc2ccc(C#N)cc21 [Example 22, 1′-ethyl-5,6-difluoro-1′H-[1,2′-bibenzo[d]imidazole]-6′-carbonitrile] |
| 1 to 100 nM | 100 to 1000 nM | COc1ccc2ncn(-c3nc4ccc(F)cc4n3C3CC3)c2c1 [Example 13, 1′-cyclopropyl-6′-fluoro-6-methoxy-1′H-1,2′-bibenzo[d]imidazole] |
| 1000 to 10000 nM | > 10000 nM | CS(=O)(=O)N(c1ccc2c(c1)ncn2-c1nc2ccc(F)c(F)c2n1C1CC1)S(C)(=O)=O [Example 30, N-(1′-cyclopropyl-6′,7′-difluoro-1′H-[1,2′-bibenzo[d]imidazol]-5-yl)-N-(methylsulfonyl) methanesulfonamide] |
| 1 to 100 nM | 1000 to 10000 nM | Fc1cc2nc(-n3cnc4ccncc43)n(C3CC3)c2cc1F [Example 36, 3-(1-cyclopropyl-5,6-difluoro-1H-benzo[d]imidazol-2-yl)-3H-imidazo[4,5-c] pyridine] |
| 1 to 100 nM | 100 to 1000 nM | COc1ccc2c(c1)ncn2-c1nc2ccc(F)cc2n1C1CC1 [Example 12, 1′-cyclopropyl-6′-fluoro-5-methoxy-1′H-1,2′-bibenzo[d]imidazole] |
| 1 to 100 nM | > 10000 nM | Fc1cc2nc(-n3cnc4cnc(C(F)F)cc43)n(C3CC3)c2cc1F [Example 40, 1-(1-cyclopropyl-5,6-difluoro-1H-benzo[d]imidazol-2-yl)-6-(difluoromethyl)-1H-imidazo[4,5-c]pyridine] |
| 1 to 100 nM | 1000 to 10000 nM | N#Cc1ccc2c(c1)ncn2-c1nc2ccc(F)cc2n1C1CC1 [Example 6, 1′-cyclopropyl-6′-fluoro-1′H-[1,2′-bibenzo[d]imidazole]-5-carbonitrile] |
| 1 to 100 nM | 100 to 1000 nM | Fc1cc2nc(-n3cnc4ccccc43)n(C3CC3)c2cc1F [Example 16, 1′-cyclopropyl-5′,6′-difluoro-1′H-1,2′-bibenzo[d]imidazole] |
| 1 to 100 nM | 100 to 1000 nM | CCc1ccc2c(c1)ncn2-c1nc2ccc(F)cc2n1C1CC1 [Example 10, 1′-cyclopropyl-5-ethyl-6′-fluoro-1′H-1,2′-bibenzo[d]imidazole] |
| 1 to 100 nM | 100 to 1000 nM | Fc1ccc2nc(-n3cnc4ccccc43)n(C3CC3)c2c1 [Example 1, 1′-cyclopropyl-6′-fluoro-1′H-1,2′-bibenzo[d]imidazole] |
| 1 to 100 nM | 1000 to 10000 nM | Fc1cc2nc(-n3cnc4ccc(OC(F)F)cc43)n(C3CC3)c2cc1F [Example 53, 1′-cyclopropyl-6-(difluoromethoxy)-5′,6′-difluoro-1′H-1,2′-bibenzo[d]imidazole] |
| 1000 to 10000 nM | > 10000 nM | CS(=O)(=O)Nc1ccc2ncn(-c3nc4cc(F)c(F)cc4n3C3CC3)c2c1 [Example 45, N-(1′-cyclopropyl-5′,6′-difluoro-1′H-[1,2′-bibenzo[d]imidazol]-6-yl) methanesulfonamide] |
| 1 to 100 nM | 1000 to 10000 nM | COc1cc2ncn(-c3nc4ccc(F)cc4n3C3CC3)c2cc1OC [Example 5, 1′-cyclopropyl-6′-fluoro-5,6-dimethoxy-1′H-1,2′-bibenzo[d]imidazole] |

The remaining lines, values behind:

| Structure (SMILES) | IC50 [1] | IC50 [2] |
| --- | --- | --- |
| Cc1ccc2ncn(-c3nc4ccc(F)cc4n3C3CC3)c2c1 [Example 9, 1′-cyclopropyl-6′-fluoro-6-methyl-1′H-1,2′-bibenzo[d]imidazole] | 1 to 100 nM | 100 to 1000 nM |
| Fc1cc2ncn(-c3nc4ccc(Cl)cc4n3C3CC3)c2cc1F [Example 26, 6′-chloro-1′-cyclopropyl-5,6-difluoro-1′H-1,2′-bibenzo[d]imidazole] | 1 to 100 nM | 1000 to 10000 nM |
| Fc1ccc2ncn(-c3nc4ccc(F)cc4n3C3CC3)c2c1 [Example 19, 1′-cyclopropyl-6,6′-difluoro-1′H-1,2′-bibenzo[d]imidazole] | 1 to 100 nM | 1000 to 10000 nM |
| Fc1ccc2nc(-n3cnc4ccc(OC(F)(F)F)cc43)n(C3CC3)c2c1 [Example 28, 1′-cyclopropyl-6′-fluoro-6-(trifluoromethoxy)-1′H-1,2′-bibenzo[d]imidazole] | 100 to 1000 nM | > 10000 nM |
| O=C(O)c1ccc2c(c1)ncn2-c1nc2cc(F)c(F)cc2n1C1CC1 [Example 44, 1′-cyclopropyl-5′,6′-difluoro-1′H-[1,2′-bibenzo[d]imidazole]-5-carboxylic acid] | 1000 to 10000 nM | > 10000 nM |
| Fc1cc2nc(-n3cnc4cnccc43)n(C3CC3)c2cc1F [Example 35, 1-(1-cyclopropyl-5,6-difluoro-1H-benzo[d]imidazol-2-yl)-1H-imidazo[4,5-c]pyridine] | 1 to 100 nM | 1000 to 10000 nM |
| N#Cc1ccc2nc(-n3cnc4cnccc43)n(C3CC3)c2c1 [Example 43, 1-cyclopropyl-2-(1H-imidazo[4,5-c]pyridin-1-yl)-1H-benzo[d]imidazole-6-carbonitrile] | 1 to 100 nM | > 10000 nM |
| N#Cc1ccc2nc(-n3cnc4cc(F)c(F)cc43)n(C3CC3)c2c1 [Example 25, 1′-cyclopropyl-5,6-difluoro-1′H-[1,2′-bibenzo[d]imidazole]-6′-carbonitrile] | 1 to 100 nM | 1000 to 10000 nM |
| Cc1cccc2c1ncn2-c1nc2ccc(F)cc2n1C1CC1 [Example 14, 1′-cyclopropyl-6′-fluoro-4-methyl-1′H-1,2′-bibenzo[d]imidazole] | 1000 to 10000 nM | > 10000 nM |
| N#Cc1ccc2nc(-n3cnc4cc(OC(F)F)ccc43)n(C3CC3)c2c1 [Example 49, 1′-cyclopropyl-5-(difluoromethoxy)-1′H-[1,2′-bibenzo[d]imidazole]-6′-carbonitrile] | 1 to 100 nM | 100 to 1000 nM |
| N#Cc1ccc2nc(-n3cnc4ccc(OC(F)F)cc43)n(C3CC3)c2c1 [Example 50, 1′-cyclopropyl-6-(difluoromethoxy)-1′H-[1,2′-bibenzo[d]imidazole]-6′-carbonitrile] | 1 to 100 nM | 1000 to 10000 nM |
| Cc1ccc2c(c1)ncn2-c1nc2ccc(F)cc2n1C1CC1 [Example 8, 1′-cyclopropyl-6′-fluoro-5-methyl-1′H-1,2′-bibenzo[d]imidazole] | 1 to 100 nM | 100 to 1000 nM |
| CS(=O)(=O)Nc1ccc2c(c1)ncn2-c1nc2cc(F)c(F)cc2n1C1CC1 [Example 46, N-(1′-cyclopropyl-5′,6′-difluoro-1′H-[1,2′-bibenzo[d]imidazol]-5-yl) methanesulfonamide] | 100 to 1000 nM | > 10000 nM |
| CS(=O)(=O)Nc1ccc2c(c1)ncn2-c1nc2ccc(F)c(F)c2n1C1CC1 [Example 31, N-(1′-cyclopropyl-6′,7′-difluoro-1′H-[1,2′-bibenzo[d]imidazol]-5-yl) methanesulfonamide] | 1 to 100 nM | > 10000 nM |
| O=C(O)c1cc2c(cn1)ncn2-c1nc2cc(F)c(F)cc2n1C1CC1 [Example 39, 1-(1-cyclopropyl-5,6-difluoro-1H-benzo[d]imidazol-2-yl)-1H-imidazo[4,5-c]pyridine-6-carboxylic acid] | 1000 to 10000 nM | > 10000 nM |
| CS(=O)(=O)Nc1ccc2c(c1)ncn2-c1nc2ccc(C#N)cc2n1C1CC1 [Example 47, N-(6′-cyano-1′-cyclopropyl-1′H-[1,2′-bibenzo[d]imidazol]-5-yl) methanesulfonamide] | 100 to 1000 nM | > 10000 nM |
| Fc1ccc2nc(-n3cnc4cc(F)c(F)cc43)n(C3CC3)c2c1 [Example 4, 1′-cyclopropyl-5,6,6′-trifluoro-1′H-1,2′-bibenzo[d]imidazole] | 1 to 100 nM | 1000 to 10000 nM |
